ChEMBL document CHEMBL1126778, “Adenosine A1 antagonists. 3. Structure-activity relationships on amelioration against scopolamine- or N6-((R)-phenylisopropyl)adenosine-induced cognitive disturbance” (J Med Chem, 1993)

How the values were obtained:
Mus musculus [1] = assay: Tested for locomotor activity after oral administration of 10 mg/kg for 120 min; format: functional
Mus musculus [2] = assay: Tested for locomotor activity after oral administration of […] for 120 min; format: functional
Mus musculus [3] = assay: Tested for locomotor activity after oral administration of 40 mg/kg for 120 min; format: functional
Rattus norvegicus [4] = assay: Acquisition time in Scopolamine induced avoidance test (performed in rat) for antagonistic activity after peroral administration of 1.25 mg/kg; format: functional; conditions: route oral
Rattus norvegicus [5] = assay: Acquisition time in Scopolamine induced avoidance test (performed in rat) for antagonistic activity after peroral administration of 20 mg/kg; format: functional; conditions: route oral
Rattus norvegicus [6] = assay: Acquisition time in Scopolamine induced avoidance test (performed in rat) for antagonistic activity after p.o. administration of 0.31 mg/kg; format: functional; conditions: route oral
Rattus norvegicus [7] = assay: Acquisition time in Scopolamine induced avoidance test (performed in rat) for antagonistic activity after p.o. administration of 5 mg/kg; format: functional; conditions: route oral
Rattus norvegicus [8] = assay: Acquisition time in Scopolamine induced avoidance test (performed in rat) for antagonistic activity after peroral administration of 80 mg/kg; format: functional; conditions: route oral
Rattus norvegicus [9] = assay: Retention time in Scopolamine induced avoidance test (performed in rat) for antagonistic activity after peroral administration of 80 mg/kg; format: functional, organism-based; design: dose 80 mg/kg
Rattus norvegicus [10] = assay: Retention time in Scopolamine induced avoidance test (performed in rat) for antagonistic activity after p.o. administration of 0.31 mg/kg; format: functional, organism-based; design: dose 0.31 mg/kg
Rattus norvegicus [11] = assay: Retention time in Scopolamine induced avoidance test (performed in rat) for antagonistic activity after peroral administration of 1.25 mg/kg; format: functional, organism-based; design: dose 1.25 mg/kg
Rattus norvegicus [12] = assay: Retention time in Scopolamine induced avoidance test (performed in rat) for antagonistic activity after peroral administration of 5 mg/kg; format: functional, organism-based; design: dose 5 mg/kg
Mus musculus [13] = assay: Acquisition time in (R)-PIA) induced avoidance test (performed in mice) for antagonistic activity after peroral administration of 0.08 mg/kg; format: functional; conditions: route oral
Mus musculus [14] = assay: Acquisition time in (R)-PIA) induced avoidance test (performed in mice) for antagonistic activity after p.o. administration of 0.31 mg/kg; format: functional; conditions: route oral
Mus musculus [15] = assay: Acquisition time in (R)-PIA) induced avoidance test (performed in mice) for antagonistic activity after p.o. administration of 1.25 mg/kg; format: functional; conditions: route oral
Mus musculus [16] = assay: Retention time in (R)-PIA) induced avoidance test (performed in mice) for antagonistic activity after p.o. administration of 1.25 mg/kg; format: functional, organism-based; design: dose 1.25 mg/kg
Mus musculus [17] = assay: Retention time in (R)-PIA) induced avoidance test (performed in mice) for antagonistic activity after peroral administration of 5 mg/kg; format: functional, organism-based; design: dose 5 mg/kg
Mus musculus [18] = assay: etention time in (R)-PIA) induced avoidance test (performed in mice) for antagonistic activity after peroral administration of 0.31 mg/kg; format: functional, organism-based; design: dose 0.31 mg/kg
Mus musculus [19] = assay: Retention time in (R)-PIA) induced avoidance test (performed in mice) for antagonistic activity after peroral administration of 0.08 mg/kg; format: functional, organism-based; design: dose 0.08 mg/kg
Rattus norvegicus [20] = assay: Acquisition time in Scopolamine induced avoidance test (performed in rat) for antagonistic activity after p.o. administration of 0.08 mg/kg; format: functional; conditions: route oral
Rattus norvegicus [21] = assay: Retention time in Scopolamine induced avoidance test (performed in […]) for antagonistic activity after peroral administration of 5 mg/kg; format: functional, organism-based; design: dose 5 mg/kg
Rattus norvegicus [22] = assay: Retention time in Scopolamine induced avoidance test (performed in rat) for antagonistic activity after p.o. administration of 0.08 mg/kg; format: functional, organism-based; design: dose 0.08 mg/kg
Rattus norvegicus [23] = assay: Retention time in Scopolamine induced avoidance test (performed in rat) for antagonistic activity after peroral administration of 20 mg/kg; format: functional, organism-based; design: dose 20 mg/kg
Mus musculus [24] = assay: Acquisition time in (R)-PIA) induced avoidance test (performed in mice) for antagonistic activity after peroral administration of 5 mg/kg; format: functional; conditions: route oral
Mus musculus [25] = assay: Retention time in (R)-PIA) induced avoidance test (performed in mice) for antagonistic activity after peroral administration of 0.02 mg/kg
Mus musculus [26] = assay: Acquisition time in (R)-PIA) induced avoidance test (performed in mice) for antagonistic activity after peroral administration of 0.02 mg/kg; conditions: route oral
[27] = molecular target: T1, Adenosine receptor A1 (Bos taurus) (UniProt P28190); assay: Binding affinity for Adenosine A1 receptor of bovine brain at 10e-5 M with [125I]-N6-aminobenzyladenosine
T1 sequence (whole entry): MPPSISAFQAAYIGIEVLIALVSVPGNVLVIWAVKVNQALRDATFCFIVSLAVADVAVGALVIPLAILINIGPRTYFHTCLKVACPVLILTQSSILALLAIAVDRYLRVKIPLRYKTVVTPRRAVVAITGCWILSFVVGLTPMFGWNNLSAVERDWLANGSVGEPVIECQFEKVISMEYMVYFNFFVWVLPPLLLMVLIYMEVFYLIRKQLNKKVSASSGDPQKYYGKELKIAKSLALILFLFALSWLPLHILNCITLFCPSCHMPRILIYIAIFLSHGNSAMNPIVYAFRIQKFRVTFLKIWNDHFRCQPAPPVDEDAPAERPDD

Adenosine A2 receptor = Adenosine A2 receptor (Homo sapiens, UniProt P29275+P29274); assay: Binding affinity towards Adenosine A2 receptor of human platelets with [125I]-N6-aminobenzyladenosine
Mus musculus [28] = assay: Acquisition time in (R)-PIA) induced avoidance test (performed in mice) for antagonistic activity after peroral administration of 20 mg/kg; format: functional; conditions: route oral
Mus musculus [29] = assay: Retention time in (R)-PIA) induced avoidance test (performed in mice) for antagonistic activity after peroral administration of 20 mg/kg; format: functional, organism-based; design: dose 20 mg/kg
Mus musculus [30] = assay: Retention time in (R)-PIA) induced avoidance test (performed in mice) for antagonistic activity after peroral administration of 0.31 mg/kg; format: functional, organism-based; design: dose 0.31 mg/kg

SMILES	Acquisition time (Rattus norvegicus [4])	Acquisition time (Rattus norvegicus [5])	Acquisition time (Rattus norvegicus [6])	Acquisition time (Rattus norvegicus [7])	Retention time (Rattus norvegicus [10])	Retention time (Rattus norvegicus [11])	Acquisition time (Mus musculus [13])	Acquisition time (Mus musculus [14])	Acquisition time (Mus musculus [15])	Retention time (Mus musculus [16])	Retention time (Mus musculus [17])	Retention time (Mus musculus [19])	Acquisition time (Rattus norvegicus [20])	Retention time (Rattus norvegicus [21])	Retention time (Rattus norvegicus [22])	Retention time (Rattus norvegicus [23])	Acquisition time (Mus musculus [24])	Retention time (Mus musculus [25])	Acquisition time (Mus musculus [26])	other results
Cn1c(=O)c2c(ncn2C)n(C)c1=O [CAFFEINE]	14.6 s	33.8 s	18.3 s	11.5 s	14.9 s	11.9 s														Locomotor activity (Mus musculus [1]): 9386 Counts; Locomotor activity (Mus musculus [2]): 6413 Counts; Locomotor activity (Mus musculus [3]): 9693 Counts; Acquisition time (Rattus norvegicus [8]): 29.6 s; Retention time (Rattus norvegicus [9]): 7.6 s; Retention time (Rattus norvegicus [12]): 12.5 s
CCCN1C(=O)N2C[C@H](CC)N=C2c2[nH]c(C34CC5CC(CC3C5)C4)nc21	15.1 s	7 s	10.9 s	14 s	81.3 s	20.3 s	13.4 s	22.9 s	14.3 s	351 s	431 s	464 s	8 s	13.3 s	40.7 s	19.6 s	12.9 s	109 s	14.3 s	Retention time (Mus musculus [18]): 489 s
CCCn1c(=O)c2nc(C3CCCC3)[nH]c2n(CCc2ccc(NC(C)=O)cc2)c1=O	12.6 s	13.8 s	15.5 s	15.9 s	130 s	170 s	23.9 s	18.9 s	18.8 s	20 s	47.5 s	75.4 s	15.4 s	187 s	175 s	116 s	27.8 s	137 s	12.2 s	inhibition [27]: 66%; Ki (Adenosine A2 receptor): > 100 µM; Acquisition time (Mus musculus [28]): 20.5 s; Retention time (Mus musculus [29]): 32.2 s; Retention time (Mus musculus [30]): 38.7 s
